Assays:
[1] = system: periodontal disease model rat; settings: suppression of alveolar bone resorption is not reported; cited from earlier work
[2] = system: gums / periodontal pocket; settings: blood circulation enhancers such as vitamin E; cited from earlier work
[3] = system: alveolar bone of rats with ligature-induced periodontitis; settings: niacin 25 mM in PBS, 100 μL dropped onto right and left second molars twice a day for 4 weeks after ligature removal; compared to PBS group; base line group 0%, Sham group 100%; Tukey, 5%
Protocol: Twenty-eight 8-week-old male Wister Rats were purchased from Japan SLC, Inc., and the rats were acclimated for one week. Subsequently, the body weights of the rats were measured, and the rats were assigned into four groups (base line group, Sham group, PBS group, and niacin group) such that the average body weights of the groups would be even.
Under isoflurane inhalation anesthesia, No. 3-0 nylon sutures (manufactured by Akiyama Seisakusho Co., Ltd.) were ligated to the right and left second molars in the upper jaw of the rats of the base line group, PBS group, and niacin group to induce periodontitis, and the rats of the respective groups were reared for two weeks. […]
After rearing for two weeks, the ligatures (No. 3-0 nylon sutures described above) were excised from the rats of the PBS group and the niacin group. For the base line group, the rats were euthanized by bleeding from the abdominal aorta under isoflurane inhalation anesthesia, and the alveolar bone resorption depths of the respective groups were measured by the following method. […]
The alveolar bone regeneration amount of the base line group was designated as 0%, and the alveolar bone regeneration amount of the Sham group was designated as 100%. Thus, the alveolar bone regeneration amounts of the PBS group and the niacin group were calculated from the average alveolar bone resorption depth thus calculated. […]

gums = settings: niacin or an ester compound thereof, intraoral composition; cited from earlier work

## vitamin E
[1]
  inflammatory response: suppresses inflammatory response
[2]
  Gingival index (swelling of gums): do not improve
  Periodontal probing depth (depth of periodontal pocket, reflecting extent of alveolar bone resorption): do not improve

## O=C(O)c1cccnc1 [niacin, niacin (nicotinic acid)]
[3]
  regeneration amount of the alveolar bone: significantly increased
gums
  blood circulation in the gums: promotes blood circulation in the gums

— patent US20190380954A1, “Bone Regeneration Agent” (Kao Corporation, priority 2017, published 2019)
